In patent US9073918B2, “Pyrazolo[4,3-b]pyridine-7-amine inhibitors of ALK5” (Takeda Pharmaceutical Company Limited, priority 2010, dated 2015):

Columns and labels:
TGF-β R1 ALK5 = target: T1, TGF-β R1 ALK5 (Homo sapiens, UniProt P36897); experiment: In vitro inhibition of ALK5 (LanthaScreen activity assay, TR-FRET); assay type: biochemical
T1 construct: purchased Invitrogen PV5837
T1 sequence (P36897 34-503): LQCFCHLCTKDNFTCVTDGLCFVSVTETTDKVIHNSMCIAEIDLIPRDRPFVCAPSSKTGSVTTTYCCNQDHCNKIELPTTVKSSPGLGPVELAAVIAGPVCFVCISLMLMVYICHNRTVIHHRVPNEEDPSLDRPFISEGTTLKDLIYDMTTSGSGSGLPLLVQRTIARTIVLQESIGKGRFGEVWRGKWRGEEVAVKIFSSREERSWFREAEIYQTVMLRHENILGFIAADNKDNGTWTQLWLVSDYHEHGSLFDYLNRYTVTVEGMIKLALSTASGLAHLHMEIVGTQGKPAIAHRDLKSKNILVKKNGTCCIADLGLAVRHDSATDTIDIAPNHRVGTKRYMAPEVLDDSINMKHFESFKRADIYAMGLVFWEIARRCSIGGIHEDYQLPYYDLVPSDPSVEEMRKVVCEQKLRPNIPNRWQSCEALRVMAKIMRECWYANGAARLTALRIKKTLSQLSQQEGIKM
Method: Test compounds were screened for TGF-β R1 ALK5 inhibition by use of a LanthaScreen™ activity assay (PV5837 Invitrogen, Invitrogen Corp. Madison, Wis.).
In brief, the assay procedure was as follows:
Solutions of test compounds were prepared in DMSO and diluted two-fold serially.
Assays were incubated for 90 minutes at room temperature and then quenched by the addition of 60 mM EDTA and 8 nM Terbium labeled anti-pSMAD3 Antibody (M4337 from Invitrogen) giving a final concentration of 15 mM EDTA and 2 nM Terbium labeled anti-pSMAD3 Antibody. Phosphorylated peptide product was quantified by measuring an increase in TR-FRET on a BMG LABTECH PHERA star plus. Response is defined as the ratio of Channel A/Channel B. The response of a blank (uninhibited) using vehicle alone is also determined. Enzyme activity was defined as the response of uninhibited enzyme activity minus the response of assays containing no enzyme. The percent inhibition of ALK5 at a given compound concentration is defined as: 100%×[1−(response compound/response blank)]
where response compound is defined as the enzyme activity in the presence of test compound and response blank is defined as the uninhibited enzyme activity. The pIC50 value (negative log of the molar concentration of the compound that produces 50% inhibition) of a test compound is calculated by non-linear least squares curve fitting of the equation: Percent Inhibition=100%/(1+(10−pIC50/10 log [I])).
Where inhibition was measured in multiple experiments the value in Table 1 is an average. N.T. means not tested.

cellular TGF-β R1 ALK5 = target: T2, cellular TGF-β R1 ALK5 (Homo sapiens, UniProt P36897); experiment: Cellular inhibition of ALK5 (CellSensor SBE-bla HEK 293T beta-lactamase reporter); assay type: cell-based; settings: cellular inhibition of ALK5, SBE-bla HEK 293T cells, TGFb-1 stimulated 5 hours; average where measured in multiple experiments
T2 construct: host or cells: CellSensor SBE-bla HEK 293T
T2 sequence (P36897 34-503): T1 sequence (P36897 34-503)
Source text: Test compounds were screened for cellular TGF-β R1 ALK5 inhibition by use of a CellSensor® SBE-bla HEK 293T (K1550, Invitrogen Corp. Madison, Wis.) cell line. The CellSensor® SBE-bla HEK 293T cell line contains a beta-lactamase reporter gene under control of the SBE response element stably integrated into HEK 293T cells. The SBE response element is a DNA region that binds activated SMADs which results from the binding of TGF-β to, and subsequent activation of ALK5.
The assay procedure was as follows:
CellSensor® SBE-bla HEK 293T cell line were plated at 12,000 cells/well in 40 ul DMEM plus 5 ug/ml blasticidin into 384-well, black-wall, clear-bottom assay plate and incubated overnight.
The following day 5 uL of 10×, 2.5-fold serially diluted test compounds in DMSO were added into cells to a final compound concentration of 1× and DMSO concentration of 0.5%. Assay was incubated for 1 hour at 37° C., 5% CO2, 5 uL of 100 ng/mL TGFb-1 was then added to activate ALK5 and incubated for 5 hours at 37° C., 5% CO2, 10 uL of detector, LiveBLAzer FRET B/G substrate (CCF4-AM, Invitrogen Corp. Madison, Wis.) was added to cells and incubated for 2 hours at RT. Assay was measured using Spectramax, a bottom-read fluorescence plate reader, at excitation setting of 405 nm and emission settings of 460 nm and 530 nm.
Response is defined as the ratio of background corrected 460 nm emission values/background corrected 530 nm emission values. Cellular activity was defined as percent inhibition of uninhibited ALK5 activity (wells treated with DMSO+TGF-β). The percent inhibition of cellular ALK5 at a given compound concentration is defined as: 100%×[1−(response compound+TGF-β/response DMSO+TGF-β)] where response compound+TGF-β is defined as the activity in the presence of test compound and response DMSO+TGF-β is defined as the uninhibited cellular ALK5 activity. The pIC50 value (negative log of the molar concentration of the compound that produces 50% inhibition) of a test compound is calculated by non-linear least squares curve fitting. pIC50 values, the negative of the log of the IC50, are calculated by non-linear curve fitting of the compound concentrations and percent of inhibition to the standard pIC50 equation.
Where inhibition was measured in multiple experiments the value in Table 2 is an average. N.T. means not tested.

| Compound | IC50 (TGF-β R1 ALK5) [nM] | IC50 (cellular TGF-β R1 ALK5) [nM] | pIC50 (TGF-β R1 ALK5; in vitro inhibition of ALK5, 15 nM ALK5, 2 μM ATP, Fluorescein-SMAD3 peptide, 90 minutes at room temperature, average where measured in multiple experiments) | pIC50 (cellular TGF-β R1 ALK5) |
| --- | --- | --- | --- | --- |
| CC(C)n1ncc2nccc(Nc3ccnc(-c4cc(Cl)ccc4F)c3)c21 [Example 20, N-(2-(5-chloro-2-fluorophenyl)pyridin-4-yl)-1-isopropyl-1H-pyrazolo[4,3-b]pyridin-7-amine] | 39.8 | 100 | – | – |
| Cc1cnc(-c2cc(Cl)ccc2F)cc1Nc1ccnc2cnn(CC(N)=O)c12 [Example 51, 2-(7-(2-(5-chloro-2-fluorophenyl)-5-methylpyridin-4-ylamino)-1H-pyrazolo[4,3-b]pyridin-1-yl)acetamide] | 12.6 | 20 | – | – |
| CNC(=O)Cn1cc2nccc(Nc3cc(-c4nc(C)ccc4F)ncc3C)c2n1 [Example 146, 2-(7-(3′-fluoro-5,6′-dimethyl-2,2′-bipyridin-4-ylamino)-2H-pyrazolo[4,3-b]pyridin-2-yl)-N-methylacetamide] | 31.6 | 501 | – | – |
| CCNC(=O)n1ncc2nccc(Nc3cc(-c4nc(C)ccc4F)ncc3C)c21 [Example 115, N-ethyl-7-(3′-fluoro-5,6′-dimethyl-2,2′-bipyridin-4-ylamino)-1H-pyrazolo[4,3-b]pyridine-1-carboxamide] | < 1 | 6.31 | – | – |
| CNC(=O)Cn1cc2ncc(F)c(Nc3cc(-c4nc(C)ccc4F)ncc3C)c2n1 [Example 147, 2-(6-fluoro-7-(3′-fluoro-5,6′-dimethyl-2,2′-bipyridin-4-ylamino)-2H-pyrazolo[4,3-b]pyridin-2-yl)-N-methylacetamide] | 31.6 | 200 | – | – |
| CCNC(=O)Cn1cc2nccc(Nc3cc(-c4nc(C)ccc4F)ncc3C)c2n1 [Example 154, N-ethyl-2-(7-(3′-fluoro-5,6′-dimethyl-2,2′-bipyridin-4-ylamino)-2H-pyrazolo[4,3-b]pyridin-2-yl)acetamide] | 31.6 | 1580 | – | – |
| Cc1ccc(F)c(-c2cc(Nc3ccnc4cn(CCC(C)(C)O)nc34)c(C)cn2)n1 [Example 120, 4-(7-(3′-fluoro-5,6′-dimethyl-2,2′-bipyridin-4-ylamino)-2H-pyrazolo[4,3-b]pyridin-2-yl)-2-methylbutan-2-ol] | 20 | 200 | – | – |
| CCNC(=O)n1ncc2nccc(Nc3ccnc(-c4cc(Cl)ccc4F)c3)c21 [Example 29, 7-(2-(5-chloro-2-fluorophenyl)pyridin-4-ylamino)-N-ethyl-1H-pyrazolo[4,3-b]pyridine-1-carboxamide] | 100 | 100 | – | – |
| Cc1ccc(F)c(-c2cc(Nc3ccnc4cn(C[C@H](C)O)nc34)ccn2)n1 [Example 107, (S)-1-(7-(3′-fluoro-6′-methyl-2,2′-bipyridin-4-ylamino)-2H-pyrazolo[4,3-b]pyridin-2-yl)propan-2-ol] | 6.31 | 39.8 | – | – |
| Cc1ccc(F)c(-c2cc(Nc3ccnc4cn(CCC(C)(C)O)nc34)ccn2)n1 [Example 119, 4-(7-(3′-fluoro-6′-methyl-2,2′-bipyridin-4-ylamino)-2H-pyrazolo[4,3-b]pyridin-2-yl)-2-methylbutan-2-ol] | 20 | 79.4 | – | – |
| Fc1ccc(Cl)cc1-c1cc(Nc2ccnc3cnn(C4CCOCC4)c23)ccn1 [Example 21, N-(2-(5-chloro-2-fluorophenyl)pyridin-4-yl)-1-(tetrahydro-2H-pyran-4-yl)-1H-pyrazolo[4,3-b]pyridin-7-amine] | 100 | 794 | – | – |
| Cc1ccc(F)c(-c2cc(Nc3ccnc4cnn(C(C)C)c34)c(C)cn2)n1 [Example 5, N-(3′-fluoro-5,6′-dimethyl-2,2′-bipyridin-4-yl)-1-isopropyl-1H-pyrazolo[4,3-b]pyridin-7-amine] | 39.8 | 200 | – | – |
| Cc1ccc(F)c(-c2cc(Nc3ccnc4cnn(CCC(C)(C)O)c34)ccn2)n1 [Example 135, 4-(7-(3′-fluoro-6′-methyl-2,2′-bipyridin-4-ylamino)-1H-pyrazolo[4,3-b]pyridin-1-yl)-2-methylbutan-2-ol] | 15.8 | 50.1 | – | – |
| Cc1ccc(F)c(-c2cc(Nc3ccnc4cn(CC(=O)NC5CC5)nc34)c(C)cn2)n1 [Example 118, N-cyclopropyl-2-(7-(3′-fluoro-5,6′-dimethyl-2,2′-bipyridin-4-ylamino)-2H-pyrazolo[4,3-b]pyridin-2-yl)acetamide] | 100 | 794 | – | – |
| N-(2-(5-chloro-2-fluorophenyl)pyridin-4-yl)-2-(2-methoxyethyl)-2H-pyrazolo[4,3-b]pyridin-7-amine and N-(2-(5-chloro-2-fluorophenyl)pyridin-4-yl)-1-(2-methoxyethyl)-2H-pyrazolo[4,3-b]pyridin-7-amine [Example 35] | – | – | 6.6 | 6.6 |
| Cc1cnc(-c2cc(F)ccc2F)cc1Nc1ccnc2cnn(CC(C)O)c12 (stereo not drawn) [Example 144, 1-(7-(2-(2,5-difluorophenyl)-5-methylpyridin-4-ylamino)-1H-pyrazolo[4,3-b]pyridin-1-yl)propan-2-ol] | 2.51 | 20 | – | – |
| Cc1ccc(F)c(-c2cc(Nc3ccnc4cn(CC(O)C(F)(F)F)nc34)ccn2)n1 (stereo not drawn) [Example 112, 1,1,1-trifluoro-3-(7-(3′-fluoro-6′-methyl-2,2′-bipyridin-4-ylamino)-2H-pyrazolo[4,3-b]pyridin-2-yl)propan-2-ol] | 63.1 | 501 | – | – |
| CCCn1cc2nccc(Nc3ccnc(-c4cc(Cl)ccc4F)c3)c2n1 [Example 19, N-(2-(5-chloro-2-fluorophenyl)pyridin-4-yl)-2-propyl-2H-pyrazolo[4,3-b]pyridin-7-amine] | 50.1 | 398 | – | – |
| Cc1ccc(F)c(-c2cc(Nc3ccnc4cnn(C[C@@H](C)O)c34)ccn2)n1 [Example 98, (R)-1-(7-(3′-fluoro-6′-methyl-2,2′-bipyridin-4-ylamino)-1H-pyrazolo[4,3-b]pyridin-1-yl)propan-2-ol] | 6.31 | 25.1 | – | – |
| Cc1ccc(F)c(-c2cc(Nc3ccnc4cnn(CC(F)F)c34)ccn2)n1 [Example 105, 1-(2,2-difluoroethyl)-N-(3′-fluoro-6′-methyl-2,2′-bipyridin-4-yl)-1H-pyrazolo[4,3-b]pyridin-7-amine] | 20 | 39.8 | – | – |
| OC[C@@H](O)Cn1cc2nccc(Nc3ccnc(-c4cc(Cl)ccc4F)c3)c2n1 [Example 47, (S)-3-(7-(2-(5-chloro-2-fluorophenyl)pyridin-4-ylamino)-2H-pyrazolo[4,3-b]pyridin-2-yl)propane-1,2-diol] | – | 398 | – | – |
| Cc1ccc(F)c(-c2cc(Nc3ccnc4cnn(CC(N)=O)c34)ccn2)n1 [Example 85, 2-(7-(3′-fluoro-6′-methyl-2,2′-bipyridin-4-ylamino)-1H-pyrazolo[4,3-b]pyridin-1-yl)acetamide] | 25.1 | – | – | – |
